One data set addresses T1, Interleukin IL-1 (Mus musculus, UniProt P13504).
T1 construct: Ricerca (contract laboratory that ran the panel)
Nature of the data set: Radioligand displacement (Ricerca). Type of data set: binding. Background: Loss of bound radioactivity is the signal in a displacement assay; it reports binding, not function.

Data set [1] can be described thus: Plasma protein binding, equilibrium dialysis. In kind it is in vitro ADME, mouse. The note with it: murine plasma. The method, then:
Plasma Protein Binding. […] Briefly plasma (220 μL) was added to the 96-well plate containing test article (5 μL) and mixed thoroughly. Subsequently, 200 μl of the plasma-test article mixture was transferred to the cis chamber (red) of the RED plate, with an accompanying 350 μL of phosphate buffer (25 mM, pH 7.4) in the trans chamber. The RED plate was sealed and incubated 4 h at 37° C. with shaking. At completion, 50 μL aliquots from each chamber were diluted 1:1 (50 μL) with either plasma (cis) or buffer (trans) and transferred to a new 96-well plate, at which time ice-cold acetonitrile (2 volumes) was added to extract the matrices. The plate was centrifuged (3000 rcf, 10 min) and supernatant solutions transferred to a new 96-well plate. The sealed plate was stored at −20° C. until LC/MS/MS analysis.
Liquid Chromatography/Mass Spectrometry Analysis. In vitro experiments. VU0456810 was analyzed on a Thermo Electron TSQ Quantum Ultra triple quad mass spectrometer (San Jose, Calif.) via electrospray ionization (ESI) with two Themo Electron Accella pumps (San Jose, Calif.), and a Leap Technologies CTC PAL autosampler (Carrboro, N.C.). Analytes were separated by gradient elution on a dual column system with two Thermo Hypersil Gold (2.1×30 mm, 1.9 μm) columns (San Jose, Calif.) at 40° C. HPLC mobile phase A was 0.1% formic acid in water and mobile phase B was 0.1% formic acid in acetonitrile. […]
On the technique in general: In equilibrium dialysis only unbound substance equilibrates across the membrane.

For another data set, the system named is GABAA (muscimol). Kind of data set: Radioligand displacement (Ricerca). The note with it: 10 μM. Type of data set: binding, rat.
A further data set deals with T2, Bradykinin B1 (Homo sapiens, UniProt P46663).
T2 construct: Ricerca
T2 sequence (P46663 whole entry): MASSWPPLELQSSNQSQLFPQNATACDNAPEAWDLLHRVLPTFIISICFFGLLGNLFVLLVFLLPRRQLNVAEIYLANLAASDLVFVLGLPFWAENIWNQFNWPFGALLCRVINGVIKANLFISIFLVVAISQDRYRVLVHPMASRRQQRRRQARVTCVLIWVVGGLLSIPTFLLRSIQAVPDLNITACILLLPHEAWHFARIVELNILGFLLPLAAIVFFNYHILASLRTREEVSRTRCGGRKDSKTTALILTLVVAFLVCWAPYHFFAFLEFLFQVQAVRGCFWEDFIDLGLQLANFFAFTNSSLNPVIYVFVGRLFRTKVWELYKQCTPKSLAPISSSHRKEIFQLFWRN
Nature of the data set: Radioligand displacement (Ricerca). In kind it is binding.

The next data set has as its target T3, Opiate (DOP) (Homo sapiens, UniProt P41143).
T3 construct: Ricerca (contract laboratory that ran the panel)
Kind of data set: Radioligand displacement (Ricerca). Type of data set: binding.

For another data set, the target named is T4, Andreogen (Rattus norvegicus, UniProt P15207).
T4 construct: Ricerca
T4 sequence (P15207 whole entry S389L): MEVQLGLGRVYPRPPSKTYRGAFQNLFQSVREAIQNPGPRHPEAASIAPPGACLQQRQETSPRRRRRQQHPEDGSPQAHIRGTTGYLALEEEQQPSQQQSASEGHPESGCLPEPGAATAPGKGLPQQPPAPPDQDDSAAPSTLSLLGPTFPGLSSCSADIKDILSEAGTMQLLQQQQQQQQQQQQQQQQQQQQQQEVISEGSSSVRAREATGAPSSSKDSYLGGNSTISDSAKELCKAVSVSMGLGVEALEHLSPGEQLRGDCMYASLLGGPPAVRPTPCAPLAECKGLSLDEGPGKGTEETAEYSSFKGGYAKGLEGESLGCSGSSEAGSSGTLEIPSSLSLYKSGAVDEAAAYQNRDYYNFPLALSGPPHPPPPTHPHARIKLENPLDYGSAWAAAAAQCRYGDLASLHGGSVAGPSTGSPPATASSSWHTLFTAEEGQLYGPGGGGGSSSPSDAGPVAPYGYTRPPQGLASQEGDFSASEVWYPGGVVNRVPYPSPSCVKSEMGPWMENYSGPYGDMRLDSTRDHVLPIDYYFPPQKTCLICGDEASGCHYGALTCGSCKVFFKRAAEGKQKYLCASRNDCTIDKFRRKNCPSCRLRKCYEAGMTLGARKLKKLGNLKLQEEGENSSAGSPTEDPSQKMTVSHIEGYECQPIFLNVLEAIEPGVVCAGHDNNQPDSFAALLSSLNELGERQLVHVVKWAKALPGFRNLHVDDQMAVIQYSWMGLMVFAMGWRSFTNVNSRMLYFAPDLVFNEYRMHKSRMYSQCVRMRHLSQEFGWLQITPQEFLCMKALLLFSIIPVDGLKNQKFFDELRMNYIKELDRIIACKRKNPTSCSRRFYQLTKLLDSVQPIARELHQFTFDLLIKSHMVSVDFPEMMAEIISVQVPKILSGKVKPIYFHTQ
Nature of the data set: Radioligand displacement (Ricerca). In kind it is binding.

The subject of another data set is Glutamate (kainate). Kind of data set: Radioligand displacement (Ricerca). Type of data set: binding, rat. The note with it: 10 μM.
A further data set addresses T5, Leukotriene (Homo sapiens, UniProt Q9Y271).
T5 construct: Ricerca (contract laboratory that ran the panel)
Kind of data set: Radioligand displacement (Ricerca). In kind it is binding.

The target of another data set is T6, Neuropeptide Y (Y1 ) (Homo sapiens, UniProt P25929).
T6 construct: Ricerca (contract laboratory that ran the panel)
T6 sequence (P25929 whole entry): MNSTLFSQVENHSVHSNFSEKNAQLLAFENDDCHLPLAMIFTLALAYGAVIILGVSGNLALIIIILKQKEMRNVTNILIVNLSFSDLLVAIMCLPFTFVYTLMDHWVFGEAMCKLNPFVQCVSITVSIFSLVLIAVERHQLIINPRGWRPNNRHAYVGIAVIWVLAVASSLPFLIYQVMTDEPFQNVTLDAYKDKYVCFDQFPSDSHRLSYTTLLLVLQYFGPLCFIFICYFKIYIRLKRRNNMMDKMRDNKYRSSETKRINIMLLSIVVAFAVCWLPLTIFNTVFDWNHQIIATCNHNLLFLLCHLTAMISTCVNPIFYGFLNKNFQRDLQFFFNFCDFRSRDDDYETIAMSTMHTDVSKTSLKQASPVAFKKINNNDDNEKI
Kind of data set: Radioligand displacement (Ricerca). In kind it is binding.

In a further data set the target is T7, Transporter, SERT (Homo sapiens, UniProt P31645).
T7 construct: Ricerca (contract panel)
T7 sequence (P31645 whole entry): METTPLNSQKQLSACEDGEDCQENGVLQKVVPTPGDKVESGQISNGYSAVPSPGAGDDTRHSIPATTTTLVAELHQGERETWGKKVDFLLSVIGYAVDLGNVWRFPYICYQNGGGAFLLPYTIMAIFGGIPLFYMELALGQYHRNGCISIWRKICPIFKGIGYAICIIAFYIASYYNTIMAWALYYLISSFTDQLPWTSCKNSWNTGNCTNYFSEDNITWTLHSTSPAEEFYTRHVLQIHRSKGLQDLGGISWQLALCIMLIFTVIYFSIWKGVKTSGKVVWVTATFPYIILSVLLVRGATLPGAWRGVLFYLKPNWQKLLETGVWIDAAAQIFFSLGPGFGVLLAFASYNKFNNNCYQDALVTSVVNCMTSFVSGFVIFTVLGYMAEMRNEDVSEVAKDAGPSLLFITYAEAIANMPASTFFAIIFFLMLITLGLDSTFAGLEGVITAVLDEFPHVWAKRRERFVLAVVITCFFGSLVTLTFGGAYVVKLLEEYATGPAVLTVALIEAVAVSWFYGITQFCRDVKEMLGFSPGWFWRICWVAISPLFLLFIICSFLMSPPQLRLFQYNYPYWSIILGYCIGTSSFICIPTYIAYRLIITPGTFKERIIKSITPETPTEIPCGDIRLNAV
Nature of the data set: Radioligand displacement (Ricerca). In kind it is binding.

Another data set deals with T8, Kir2.1 (Homo sapiens, UniProt P63252).
T8 construct: expressed in transfected cells; host or cells: T-REx-293
T8 sequence (P63252 whole entry): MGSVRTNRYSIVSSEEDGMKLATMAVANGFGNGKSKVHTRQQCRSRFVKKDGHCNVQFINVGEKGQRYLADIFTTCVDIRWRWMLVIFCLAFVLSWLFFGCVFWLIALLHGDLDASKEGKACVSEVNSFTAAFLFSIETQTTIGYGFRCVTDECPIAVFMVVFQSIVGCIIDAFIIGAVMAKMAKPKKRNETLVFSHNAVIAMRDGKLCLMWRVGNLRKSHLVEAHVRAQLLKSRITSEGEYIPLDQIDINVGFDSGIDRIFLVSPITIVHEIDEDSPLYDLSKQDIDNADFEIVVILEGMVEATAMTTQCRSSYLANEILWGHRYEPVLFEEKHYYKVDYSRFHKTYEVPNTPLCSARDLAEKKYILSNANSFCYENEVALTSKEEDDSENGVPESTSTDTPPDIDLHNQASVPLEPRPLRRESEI
Kind of data set: Thallium flux assay, Kir2.1-expressing cells. Type of data set: cell-based. From the text: Cell Line Construction and Cell Culture. HEK-293 cells co-expressing human GIRK1/2 and rat mGlu8 were generated as previously described (Niswender et al., 2008). A HEK-293 cell line (ATCC, Manassas, Va.) expressing human GIRK1 and human GIRK2 was constructed by transfecting HEK-293 cells with GIRK1 and GIRK2 (Origene, Rockville, Md.) cloned into the pBudCE4.1 vector (Life Technologies, Carlsbad, Calif.) using FuGene 6 (Promega, Madison, Wis.) transfection reagent. Unless otherwise noted, other ion channel-expressing cells were prepared by transfecting HEK-293 cells with individual or combinations of subunits: GIRK1, pCMV6-A-BSD; GIRK2, pCMV6-A-puro; GIRK3, pCMV6-A-hygro; GIRK4, pCMV6-A-AC; Kv7.4, pIRESneo3. The Kir2.1 and hERG-expressing cell lines were made by transfecting T-REx-293 cells (Life Technologies, Carlsbad, Calif.) with Kir2.1 and Kv11.1, respectively, cloned into pcDNA5TO. Monoclonal cell lines were produced by limiting-dilution cloning of antibiotic-resistant cells and functional selection using the thallium flux assay described below. Unless otherwise noted, cells were maintained in Minimal Essential Medium, Alpha Medium (Mediatech, Manassas, Va.) supplemented with 10% fetal bovine serum (Sigma-Aldrich, Saint Louis, Mo.) and GlutaGro (Mediatech, Manassas, Va.), referred to henceforth as cell culture medium. […]

T1 sequence (P13504 20-576): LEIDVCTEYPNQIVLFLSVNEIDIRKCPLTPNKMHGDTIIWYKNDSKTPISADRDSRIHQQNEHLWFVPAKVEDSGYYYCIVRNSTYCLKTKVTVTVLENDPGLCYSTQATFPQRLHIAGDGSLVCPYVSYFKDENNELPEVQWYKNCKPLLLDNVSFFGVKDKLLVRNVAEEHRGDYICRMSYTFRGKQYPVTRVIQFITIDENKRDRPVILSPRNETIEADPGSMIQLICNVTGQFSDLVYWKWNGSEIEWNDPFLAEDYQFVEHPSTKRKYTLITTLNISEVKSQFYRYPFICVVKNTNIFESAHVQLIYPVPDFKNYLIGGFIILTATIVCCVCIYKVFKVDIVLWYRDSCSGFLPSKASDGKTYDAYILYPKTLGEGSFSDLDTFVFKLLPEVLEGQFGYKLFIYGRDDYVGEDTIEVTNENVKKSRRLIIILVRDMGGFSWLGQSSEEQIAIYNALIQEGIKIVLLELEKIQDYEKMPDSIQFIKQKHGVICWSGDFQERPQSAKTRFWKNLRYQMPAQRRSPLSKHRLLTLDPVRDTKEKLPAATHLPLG
T5 sequence (Q9Y271 whole entry): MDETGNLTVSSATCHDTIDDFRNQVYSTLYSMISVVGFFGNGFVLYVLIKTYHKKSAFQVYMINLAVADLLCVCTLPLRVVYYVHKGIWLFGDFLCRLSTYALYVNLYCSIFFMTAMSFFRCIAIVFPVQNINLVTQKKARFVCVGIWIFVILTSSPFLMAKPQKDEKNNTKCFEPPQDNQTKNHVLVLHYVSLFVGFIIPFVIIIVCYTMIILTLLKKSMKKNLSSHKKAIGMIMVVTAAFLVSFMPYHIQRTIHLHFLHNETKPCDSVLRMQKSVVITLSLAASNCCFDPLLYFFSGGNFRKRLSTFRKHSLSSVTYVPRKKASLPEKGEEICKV
T3 sequence (P41143 whole entry): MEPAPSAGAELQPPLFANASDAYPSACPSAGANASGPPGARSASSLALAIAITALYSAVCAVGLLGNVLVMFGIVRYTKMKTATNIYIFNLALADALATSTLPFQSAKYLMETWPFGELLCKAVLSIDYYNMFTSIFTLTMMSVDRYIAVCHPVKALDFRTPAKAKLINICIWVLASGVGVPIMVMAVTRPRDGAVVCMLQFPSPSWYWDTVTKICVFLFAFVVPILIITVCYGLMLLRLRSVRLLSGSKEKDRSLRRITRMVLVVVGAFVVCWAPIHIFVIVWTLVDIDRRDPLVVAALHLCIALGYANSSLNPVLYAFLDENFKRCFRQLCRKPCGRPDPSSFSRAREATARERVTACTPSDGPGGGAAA

The inhibition is the relative decrease from the control value, in per cent. As usually defined, the % Inhibition is the change of the read-out against control, counted positive when it falls. As to `Cc1cc(NC(=O)Nc2ccc(F)c(F)c2)n(-c2ccccc2)n1` [VU0456810, 1-(3,4-difluorophenyl)-3-(3-methyl-1-phenyl-1H-pyrazol-5-yl)urea], the inhibition at 10 µM on Interleukin IL-1 was 2%; on Bradykinin B1, -2%; at Opiate (DOP), -4%; at Andreogen, 0%; at Leukotriene, 4%; on Neuropeptide Y (Y1 ), 24%. Moreover, the inhibition at 10 µM at Transporter, SERT is -1%. Moreover, the “Plasma Protein Binding” value in data set [1] amounted to 3 % fu. For the same compound, the entries for the “% Inhibition” value in the data set on GABAA (muscimol) and in the data set with Glutamate (kainate) were 49% and 1%, respectively. The Potency result at Kir2.1 is listed as “Inactive”.

(Values after patent publication US9067894B1, “Compound, composition, and method of activating GIRK potassium channel and use of same for treating conditions of interest” (Vanderbilt University, priority 2013, dated 2015).)
